In PubChem BioAssay AID1919013 (Molecular Pharmacology Branch, DTP, NCI, 2023):
Where “and” joins values, the source holds several entries; their conditions need not be identical. Equal entries are not always repeated.

Test system: LG0703-F498-PDC complex spheroid growth
Assay: Anticancer human tumor LG0703-F498-PDC patient-derived lung adenocarcinoma cell line growth inhibition [AhR]
Details: for viability, T/C: stronger effect = lower value
Excerpt: Multicellular complex tumor spheroid response to aryl hydrocarbon receptor antagonists in combination with a variety of drugs and investigational agents in selected tumor cell lines
The current study was undertaken to assess response to aryl hydrocarbon receptor antagonists in combination with standard-of-care drugs and investigational agents in solid tumor complex spheroid models. Complex spheroids include a stromal component modeled by human endothelial cells (HUVEC) and fibroblasts modeled by human mesenchymal stem cells (MSCs). The concentration ranges selected for each drug and investigational agent were based upon clinically achievable concentrations if the clinical Cmax of the agent was known.
Compounds. The drugs and investigational agents: BAY 2416964 (NSC825713), GNF351 (NSC835774), CH-223191 (NSC835775), CPI-455 (NSC825282), aza-TdCyd (NSC777586), decitabine (NSC127716), belinostat (NSC758774), entinostat (NSC756642), pevonedistat (NSC761192), tazemetostat (NSC777109), talazoparib (NSC765396), olaparib (NSC753686), selinexor (NSC780203), nedisertib (M3814, NSC802822), bortezomib (NSC756655), venetoclax (NSC766270), doxorubicin (NSC123127), elimusertib (BAY189344, NSC800525), ceralasertib (AZD6738, NSC777638), TAK-243 (NSC785004), alisertib (NSC759677), etoposide (NSC141540), topotecan (NSC609699), eribulin (NSC707389), gemcitabine (NSC613327), carboplatin (NSC241240), cisplatin (NSC119875), and SN-38 (NSC673596) were obtained from the National Cancer Institute (NCI) Developmental Therapeutics Program Chemical Repository (32). The FDA-approved anticancer drug set is available from the Developmental Therapeutics Program at https://dtp.cancer.gov/organization/dscb/obtaining/available plates.htm. […] The stock solutions were prepared in dimethyl sulfoxide (DMSO, Sigma-Aldrich, St. Louis, MO, cat. D2650), except for the platinum compounds which were prepared in saline (Quality Biological, Gaithersburg, MD, cat. 114-055-101), at 800-fold the tested concentration and stored at -70 degrees C prior to their use. All drugs and investigational agents were tested over a range starting from a high concentration at or near the clinical Cmax and decreasing in half-log increments. If the clinical Cmax for an agent had not been determined, the highest concentration tested was 10 microM (Table 1).
Cell Culture. All cells were maintained in an incubator at 37 degrees C and 5% CO2 with 95% humidity. The PDC lines were cultured according to standard operating procedures established by the NCI PDMR (https://pdmr.cancer.gov). Briefly, all PDCs were thawed and cultured in Matrigel-coated flasks prepared with a working solution of 1X Ham's F-12 nutrient mix, without supplementation (Invitrogen, Waltham, MA, cat. 11765054), 100 U/mL penicillin-streptomycin (Invitrogen, cat. 15140122), and 2.5% Matrigel (Corning Inc., Corning, NY, cat. 354248) for the first three passages. All PDCs were cultured in complete DMEM/F-12 media containing advanced DMEM/F-12 (Invitrogen, cat. 12634028), 4.9% defined fetal bovine serum, heat inactivated (HyClone Laboratories Inc., Logan, UT, cat. SH30070.03HI), 389 ng/mL hydrocortisone (Sigma-Aldrich, cat. H4001), 9.7 ng/mL human EGF recombinant protein (Invitrogen, cat. PHG0313), 23.4 microg/mL adenine (Sigma-Aldrich, cat. A2786), 97.3 U/mL penicillin-streptomycin (Invitrogen, cat. 15140122), 1.9 mM L-glutamine (Invitrogen, cat. 25030081), and 9.7 microM Y-27632 dihydrochloride (Tocris Bioscience, Bristol, United Kingdom, cat. 1254). The PDCs were cultured in complete DMEM/F12 media without 10 microM Y-27632 dihydrochloride for at least two passages prior to the screen. The established cell lines NCI-H1341 and […] were cultured in DMEM/F-12, HEPES (Invitrogen, cat. 11330032), 5% defined fetal bovine serum (HyClone Laboratories Inc., cat. SH30070.03), ITS premix universal culture supplement [insulin (5 microg/mL), transferrin (5 microg/mL), and selenious acid (5 ng/mL)] […]
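Also: luminescence taken as a proxy for viable cell amount.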
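For viability, T/C in this document: percent of DMSO vehicle control where 100% means growth equal to vehicle.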

Compound: CC(C)CC(NC(=O)C(Cc1ccccc1)NC(=O)c1cnccn1)B(O)O (configuration not stated) + Cc1cncc(-c2nc(NCCc3c[nH]c4ccccc34)c3ncn(C(C)C)c3n2)c1
- IC50 (curve of first compound, second compound 0.1 µM): 4.06 nM
- IC50 (curve of first compound, second compound 0.316 µM): 4.36 nM
- IC50 (curve of first compound, second compound 1 µM): 3.62 nM
- IC50 (curve of first compound, second compound 3.16 µM): 1.12 nM
- IC50 (curve of first compound, second compound 10 µM): < 0.949 nM
- viability, T/C (second compound 0.1 µM, first compound 0.000949 µM): 90.8%
- viability, T/C (second compound 0.1 µM, first compound 0.003 µM): 65.4%
- viability, T/C (second compound 0.1 µM, first compound 0.00949 µM): 6.78%
- viability, T/C (second compound 0.1 µM, first compound 0.03 µM): 0.57%
- viability, T/C (second compound 0.1 µM, first compound 0.0949 µM): 0.07%
- viability, T/C (second compound 0.1 µM, first compound 0.3 µM): 0.18%
- viability, T/C (second compound 0.316 µM, first compound 0.000949 µM): 101%
- viability, T/C (second compound 0.316 µM, first compound 0.003 µM): 71.3%
- viability, T/C (second compound 0.316 µM, first compound 0.00949 µM): 5.68%
- viability, T/C (second compound 0.316 µM, first compound 0.03 µM): 0.52%
- viability, T/C (second compound 0.316 µM, first compound 0.0949 µM): 0.13%
- viability, T/C (second compound 0.316 µM, first compound 0.3 µM): 0.41%
- viability, T/C (second compound 1 µM, first compound 0.000949 µM): 115%
- viability, T/C (second compound 1 µM, first compound 0.003 µM): 58.9%
- viability, T/C (second compound 1 µM, first compound 0.00949 µM): 4.01%
- viability, T/C (second compound 1 µM, first compound 0.03 µM): 0.74%
- viability, T/C (second compound 1 µM, first compound 0.0949 µM): 0.04%
- viability, T/C (second compound 1 µM, first compound 0.3 µM): 0.35%
- viability, T/C (second compound 3.16 µM, first compound 0.000949 µM): 52.8%
- viability, T/C (second compound 3.16 µM, first compound 0.003 µM): 33.7%
- viability, T/C (second compound 3.16 µM, first compound 0.00949 µM): 1.21%
- viability, T/C (second compound 3.16 µM, first compound 0.03 µM): 0.06%
- viability, T/C (second compound 3.16 µM, first compound 0.0949 µM): 0.5%
- viability, T/C (second compound 3.16 µM, first compound 0.3 µM): 0.67%
- viability, T/C (second compound 10 µM, first compound 0.000949 µM): 1.32%
- viability, T/C (second compound 10 µM, first compound 0.003 µM): 0.98%
- viability, T/C (second compound 10 µM, first compound 0.00949 µM): 0.8%
- viability, T/C (second compound 10 µM, first compound 0.03 µM): 0.13%
- viability, T/C (second compound 10 µM, first compound 0.0949 µM): 1.1%
- viability, T/C (second compound 10 µM, first compound 0.3 µM): 1.18%

Compound: CC1COCCN1c1cc(-c2ccnn2C)c2ccnc(-c3ccn[nH]3)c2n1 (configuration not stated)
- viability, T/C (compound 0.00316 µM): 97.6% and 98.2% and 105%
- viability, T/C (compound 0.01 µM): 102% and 105% and 98.7%
- viability, T/C (compound 0.0316 µM): 106% and 82.9% and 90.9%
- viability, T/C (compound 0.1 µM): 86.3% and 83.7% and 85%
- viability, T/C (compound 0.316 µM): 62.1% and 66.7% and 69.9%
- viability, T/C (compound 1 µM): 40.7% and 43.3% and 42%
- IC50 (curve of compound): 597 nM and 726 nM and 723 nM
